Reference: ChEMBL document CHEMBL1255356, “The efflux pump inhibitor reserpine selects multidrug-resistant Streptococcus pneumoniae strains that overexpress the ABC transporters PatA and PatB” (2008)
Values after ≈ are worked out from the molar mass of the structure shown.

Legend:
Streptococcus pneumoniae [1] = assay: Antibacterial activity against Streptococcus pneumoniae M235 by microdilution method; format: functional
Streptococcus pneumoniae [2] = assay: Inhibition of ABC efflux pump in Streptococcus pneumoniae M184 assessed as increase in accumulation of ciprofloxacin by fluorometric uptake assay relative to wild type
Streptococcus pneumoniae [3] = assay: Antibacterial activity against Streptococcus pneumoniae M169 by microdilution method; format: functional
Streptococcus pneumoniae [4] = assay: Antibacterial activity against Streptococcus pneumoniae R6 by microdilution method; format: functional
Streptococcus pneumoniae [5] = assay: Antibacterial activity against Streptococcus pneumoniae M168 by microdilution method; format: functional
Streptococcus pneumoniae [6] = assay: Inhibition of ABC efflux pump in Streptococcus pneumoniae M168 assessed as increase in accumulation of ciprofloxacin by fluorometric uptake assay relative to sStreptococcus pneumoniae M4
Streptococcus pneumoniae [7] = assay: Inhibition of ABC efflux pump in Streptococcus pneumoniae M169 assessed as reduction in ciprofloxacin MIC at 80 ug/ml
Streptococcus pneumoniae [8] = assay: Antibacterial activity against Streptococcus pneumoniae M234 by microdilution method; format: functional
Streptococcus pneumoniae [9] = assay: Inhibition of ABC efflux pump in Streptococcus pneumoniae M186 assessed as reduction in ciprofloxacin MIC at 80 ug/ml
Streptococcus pneumoniae [10] = assay: Inhibition of ABC efflux pump in Streptococcus pneumoniae M169 assessed as increase in accumulation of ethidium bromide by fluorescence method after 10 mins relative to wild type; design: scale not given: the % may be the effect or the level left
Streptococcus pneumoniae [11] = assay: Antibacterial activity against Streptococcus pneumoniae M240 by microdilution method; format: functional
Streptococcus pneumoniae [12] = assay: Antibacterial activity against Streptococcus pneumoniae M186 by microdilution method; format: functional
Streptococcus pneumoniae [13] = assay: Inhibition of ABC efflux pump in Streptococcus pneumoniae M184 assessed as reduction in ciprofloxacin MIC at 80 ug/ml
Streptococcus pneumoniae [14] = assay: Antibacterial activity against Streptococcus pneumoniae M230 by microdilution method; format: functional
Streptococcus pneumoniae [15] = assay: Inhibition of ABC efflux pump in Streptococcus pneumoniae M184 assessed as increase in accumulation of ethidium bromide by fluorescence method after 10 mins relative to wild type; design: scale not given: the % may be the effect or the level left
Streptococcus pneumoniae [16] = assay: Inhibition of ABC efflux pump in Streptococcus pneumoniae M186 assessed as increase in accumulation of ciprofloxacin by fluorometric uptake assay relative to wild type
Streptococcus pneumoniae [17] = assay: Antibacterial activity against Streptococcus pneumoniae M233 by microdilution method; format: functional
Streptococcus pneumoniae [18] = assay: Inhibition of ABC efflux pump in Streptococcus pneumoniae M4 assessed as increase in accumulation of ciprofloxacin by fluorometric uptake assay relative to wild type
Streptococcus pneumoniae [19] = assay: Antibacterial activity against Streptococcus pneumoniae M246 by microdilution method; format: functional
Streptococcus pneumoniae [20] = assay: Antibacterial activity against Streptococcus pneumoniae M184 by microdilution method; format: functional
Streptococcus pneumoniae [21] = assay: Inhibition of ABC efflux pump in Streptococcus pneumoniae M186 assessed as increase in accumulation of ethidium bromide by fluorescence method after 10 mins relative to wild type; design: scale not given: the % may be the effect or the level left
Streptococcus pneumoniae [22] = assay: Inhibition of ABC efflux pump in Streptococcus pneumoniae M169 assessed as increase in accumulation of ciprofloxacin by fluorometric uptake assay relative to wild type
Streptococcus pneumoniae [23] = assay: Antibacterial activity against Streptococcus pneumoniae M231 by microdilution method; format: functional
Streptococcus pneumoniae [24] = assay: Antibacterial activity against Streptococcus pneumoniae M236 by microdilution method; format: functional
Streptococcus pneumoniae [25] = assay: Antibacterial activity against Streptococcus pneumoniae M4 by microdilution method; format: functional
Streptococcus pneumoniae [26] = assay: Inhibition of ABC efflux pump in Streptococcus pneumoniae M168 assessed as increase in accumulation of ethidium bromide by fluorescence method after 10 mins relative to Streptococcus pneumoniae M4; design: scale not given: the % may be the effect or the level left

How did the MIC (Streptococcus pneumoniae [1]) turn out when `COC(=O)[C@H]1[C@H]2C[C@@H]3c4[nH]c5cc(OC)ccc5c4CCN3C[C@H]2C[C@@H](OC(=O)c2cc(OC)c(OC)c(OC)c2)[C@@H]1OC` [RESERPINE] was run?
The MIC was 256 µg/mL (≈ 421 µM).

What about the fold change (FC) (Streptococcus pneumoniae [2]) of the same compound?
The fold change (FC) was 2.8.

And the MIC (Streptococcus pneumoniae [3])?
The MIC was 256 µg/mL (≈ 421 µM).

And the MIC (Streptococcus pneumoniae [4])?
Its MIC is 64 µg/mL (≈ 105 µM).

What about the MIC (Streptococcus pneumoniae [5]) of the same compound?
The MIC was 256 µg/mL (≈ 421 µM).

What about the fold change (FC) (Streptococcus pneumoniae [6]) of the same compound?
The fold change (FC) was 2.3.

What about the Activity (Streptococcus pneumoniae [7]) of the same compound?
The Activity was 1 µg/mL.

What about the MIC (Streptococcus pneumoniae [8]) of the same compound?
Its MIC is 64 µg/mL (≈ 105 µM).

And the Activity (Streptococcus pneumoniae [9])?
Its Activity is 1 µg/mL.

What about the Activity (Streptococcus pneumoniae [10]) of the same compound?
The Activity was 24.6%.

What about the MIC (Streptococcus pneumoniae [11]) of the same compound?
Its MIC is 64 µg/mL (≈ 105 µM).

What about the MIC (Streptococcus pneumoniae [12]) of the same compound?
Its MIC is 256 µg/mL (≈ 421 µM).

And the Activity (Streptococcus pneumoniae [13])?
The Activity was 1 µg/mL.

What about the MIC (Streptococcus pneumoniae [14]) of the same compound?
The MIC was 256 µg/mL (≈ 421 µM).

What about the Activity (Streptococcus pneumoniae [15]) of the same compound?
The Activity was 26.7%.

And the fold change (FC) (Streptococcus pneumoniae [16])?
The fold change (FC) was 2.1.

And the MIC (Streptococcus pneumoniae [17])?
The MIC was 256 µg/mL (≈ 421 µM).

What about the fold change (FC) (Streptococcus pneumoniae [18]) of the same compound?
Its fold change (FC) is 1.6.

And the MIC (Streptococcus pneumoniae [19])?
Its MIC is 64 µg/mL (≈ 105 µM).

What about the MIC (Streptococcus pneumoniae [20]) of the same compound?
Its MIC is 256 µg/mL (≈ 421 µM).

And the Activity (Streptococcus pneumoniae [21])?
Its Activity is 32.9%.

What about the fold change (FC) (Streptococcus pneumoniae [22]) of the same compound?
The fold change (FC) was 2.9.

What about the MIC (Streptococcus pneumoniae [23]) of the same compound?
The MIC was 64 µg/mL (≈ 105 µM).

And the MIC (Streptococcus pneumoniae [24])?
The MIC was 64 µg/mL (≈ 105 µM).

What about the MIC (Streptococcus pneumoniae [25]) of the same compound?
The MIC was 64 µg/mL (≈ 105 µM).

And the Activity (Streptococcus pneumoniae [26])?
Its Activity is 27.7%.
